Measured values taken from publication PMC9181188 (International Journal of Molecular Sciences, 2022).
In brackets after ≈: the same amount, converted by molar mass. Read-outs that look alike come from different tables or passages of the source.

Experiments:
SW620 cells = experiment: MTT assay, SW620; type: cell-based, human; details: for IC50: Homo sapiens, SW-620, 72 h, human metastatic colon cancer, 72 h, MTT, mean ± SD
[1] = system: standard staphylococci (S. aureus, S. epidermidis); experiment: MIC, standard Gram-positive strains as a group; type: cell-based; details: Staphylococcus aureus; range over standard Gram-positive strains; read-out: MIC against standard staphylococci
[2] = system: S. epidermidis KR 4313 834/19; experiment: MIC, clinical S. epidermidis strain; type: cell-based; details: Staphylococcus epidermidis, KR4313834/19, quinolone-susceptible, 18 h of treatment
[3] = system: S. epidermidis KR 4358/2 840/19; experiment: MIC, clinical S. epidermidis strain; type: cell-based; details: Staphylococcus epidermidis, KR4358/2840/19; clinical S. epidermidis, quinolone-susceptible, 18 h of treatment; read-out: MIC KR 4358/2 840/19
M. tuberculosis H37Rv = experiment: MABA (microplate Alamar blue assay) MIC; type: cell-based; details: Mycobacterium tuberculosis, 336 h, read-out: MIC M. tuberculosis H37Rv
S. aureus ATCC 25923 = experiment: MIC, twofold microdilution, standard strain; type: cell-based; details: Staphylococcus aureus, ATCC25923; 18 h of treatment; read-out: MIC S. aureus ATCC 25923
S. aureus ATCC 6538 = experiment: MIC, twofold microdilution, standard strain; type: cell-based; details: Staphylococcus aureus, ATCC6538; 18 h of treatment; read-out: MIC S. aureus ATCC 6538
[4] = system: S. epidermidis T 5501 851/19; experiment: MIC, clinical S. epidermidis strain; type: cell-based; details: Staphylococcus epidermidis, T5501851/19, read-out: MIC T 5501 851/19, quinolone-susceptible, 18 h of treatment
S. aureus ATCC 29213 = experiment: MIC, twofold microdilution, standard strain; type: cell-based; details: Staphylococcus aureus, ATCC29213; 18 h of treatment; read-out: MIC S. aureus ATCC 29213
E. coli ATCC 25922 = experiment: MIC, twofold microdilution, standard strain; type: cell-based, Escherichia coli; details: Escherichia coli, ATCC25922; 18 h of treatment; read-out: MIC E. coli ATCC 25922
SW480 cells = experiment: MTT assay, SW480; type: cell-based, human; details: for IC50: human primary colon cancer, 72 h, MTT, mean ± SD
[5] = system: S. epidermidis KR 4047 825/19; experiment: MIC, clinical S. epidermidis strain; type: cell-based; details: Staphylococcus epidermidis, KR4047825/19, quinolone-resistant, 18 h of treatment
HaCaT cells = experiment: MTT assay, HaCaT normal cells; type: cell-based; details: human immortal keratinocyte cell line, 72 h, mean ± SD
[6] = system: S. epidermidis ATCC 12228; experiment: MIC, twofold microdilution, standard strain; type: cell-based; details: Staphylococcus epidermidis, ATCC12228; 18 h of treatment; read-out: MIC S. epidermidis ATCC 12228
[7] = system: M. tuberculosis Spec. 192 (Sensitive to Tuberculostatics); experiment: MABA (microplate Alamar blue assay) MIC; type: cell-based; details: Mycobacterium tuberculosis, 336 h, read-out: MIC M. tuberculosis Spec. 192 (Sensitive to Tuberculostatics)
[8] = system: S. epidermidis ATCC 35984; experiment: MIC, twofold microdilution, standard strain; type: cell-based; details: Staphylococcus epidermidis, ATCC35984; 18 h of treatment; read-out: MIC S. epidermidis ATCC 35984
[9] = system: S. epidermidis T 5399 848/19; experiment: MIC, clinical S. epidermidis strain; type: cell-based; details: Staphylococcus epidermidis, T5399848/19, quinolone-susceptible, 18 h of treatment
[10] = system: S. epidermidis T 5253 845/19; experiment: MIC, clinical S. epidermidis strain; type: cell-based; details: Staphylococcus epidermidis, T5253845/19, quinolone-resistant, 18 h of treatment
P. aeruginosa ATCC 27853 = experiment: MIC, twofold microdilution, standard strain; type: cell-based; details: Pseudomonas aeruginosa, read-out: MIC P. aeruginosa ATCC 27853
S. aureus NCTC 4163 = experiment: MIC, twofold microdilution, standard strain; type: cell-based; details: Staphylococcus aureus, NCTC4163; 18 h of treatment; read-out: MIC S. aureus NCTC 4163
PC3 cells = experiment: MTT assay, PC3; type: cell-based, human
[11] = system: S. epidermidis KR 4243 829/19; experiment: MIC, clinical S. epidermidis strain; type: cell-based; details: Staphylococcus epidermidis, KR4243829/19, quinolone-susceptible, 18 h of treatment
[12] = SI = IC50 for normal cell line (HaCaT)/IC50 cancer cell line

CCCCCCCCCCCCCCCCCC(=O)N1CCCC2CN(c3c(F)cc4c(=O)c(C(=O)O)cn(C5CC5)c4c3OC)CC21 (centres unmarked) [Compound 16m, 1-Cyclopropyl-6-fluoro-8-methoxy-7-(1-octadecanoyl-octahydro-pyrrolo[3,4-b]pyridin-6-yl)-4-oxo-1,4-dihydro-quinoline-3-carboxylic acid]
IC50 (SW620 cells): 6.5 ± 1.2 µM | SI SW620 (SW620 cells; [12]): 12.5 | MIC [1]: > 32 µg/mL | MIC [2]: 128 µg/mL (≈ 192 µM) | MIC [3]: 512 µg/mL (≈ 767 µM) | MIC (M. tuberculosis H37Rv): > 512 µg/mL | MIC (S. aureus ATCC 25923): 64 µg/mL (≈ 95.8 µM) | MIC (S. aureus ATCC 6538): 64 µg/mL (≈ 95.8 µM) | MIC [4]: 512 µg/mL (≈ 767 µM) | MIC (S. aureus ATCC 29213): 64 µg/mL (≈ 95.8 µM) | MIC (E. coli ATCC 25922): 128 µg/mL (≈ 192 µM) | IC50 (SW480 cells; Homo sapiens, SW480, 72 h): < 5 µM | SI SW480 (SW480 cells; [12]): 30.2 | IC50 (SW480 cells): 2.7 ± 0.7 µM | MIC [5]: 256 µg/mL (≈ 383 µM) | IC50 (HaCaT cells): 81.5 ± 4.2 µM | MIC [6]: 64 µg/mL (≈ 95.8 µM) | MIC [7]: > 512 µg/mL | MIC [8]: 64 µg/mL (≈ 95.8 µM) | MIC [9]: 512 µg/mL (≈ 767 µM) | MIC [10]: 512 µg/mL (≈ 767 µM) | MIC (P. aeruginosa ATCC 27853; ATCC27853, 18 h): > 512 µg/mL | MIC (S. aureus NCTC 4163): 64 µg/mL (≈ 95.8 µM) | SI PC3 (PC3 cells; [12]): 34.0 | MIC [11]: 64 µg/mL (≈ 95.8 µM)

COc1cccc2c1C(=O)c1c(O)c3c(c(O)c1C2=O)C[C@@](O)(C(=O)CO)C[C@@H]3O[C@H]1C[C@H](N)[C@H](O)[C@H](C)O1 [Doxorubicin, reference compound]
IC50 (SW480 cells; Homo sapiens, SW480, 72 h): 0.75 ± 0.1 µM | IC50 (HaCaT cells): 0.29 ± 0.1 µM

CC[C@@H](CO)NCCN[C@@H](CC)CO [Ethambutol (EMB), Ethambutol, reference compound]
MIC (M. tuberculosis H37Rv; 2 weeks of treatment): 2 µg/mL (≈ 9.79 µM) | MIC ([7]; 2 weeks of treatment): 2 µg/mL (≈ 9.79 µM)

NNC(=O)c1ccncc1 [Isoniazid (INH), Isoniazid, reference compound]
MIC (M. tuberculosis H37Rv): 0.125 µg/mL (≈ 0.911 µM) | MIC ([7]; 2 weeks of treatment): 0.125 µg/mL (≈ 0.911 µM)

COc1c(N2C[C@@H]3CCCN[C@@H]3C2)c(F)cc2c(=O)c(C(=O)O)cn(C3CC3)c12 [MXF, moxifloxacin, reference compound]
IC50 (SW620 cells): 54.5 ± 3.8 µM | MIC [2]: 0.1 µg/mL (≈ 0.249 µM) | MIC [3]: 0.1 µg/mL (≈ 0.249 µM) | MIC (M. tuberculosis H37Rv; 2 weeks of treatment): 0.25 µg/mL (≈ 0.623 µM) | MIC (S. aureus ATCC 25923): < 0.03 µg/mL | MIC (S. aureus ATCC 6538): 0.06 µg/mL (≈ 0.149 µM) | MIC [4]: 0.1 µg/mL (≈ 0.249 µM) | MIC (S. aureus ATCC 29213): 0.06 µg/mL (≈ 0.149 µM) | MIC (E. coli ATCC 25922): < 0.03 µg/mL | IC50 (SW480 cells; Homo sapiens, SW480, 72 h): 58.4 ± 3.1 µM | MIC [5]: 2 µg/mL (≈ 4.98 µM) | IC50 (HaCaT cells): 121 ± 6.8 µM | MIC [6]: 0.06 µg/mL (≈ 0.149 µM) | MIC ([7]; 2 weeks of treatment): 0.125 µg/mL (≈ 0.311 µM) | MIC [8]: 0.06 µg/mL (≈ 0.149 µM) | MIC [9]: 0.1 µg/mL (≈ 0.249 µM) | MIC [10]: 4 µg/mL (≈ 9.96 µM) | MIC (P. aeruginosa ATCC 27853; ATCC27853, 18 h of treatment): > 512 µg/mL | MIC (S. aureus NCTC 4163): 0.06 µg/mL (≈ 0.149 µM) | IC50 (PC3 cells; Homo sapiens, PC-3, 72 h, human metastatic prostate cancer, 72 h, MTT, mean ± SD): 46.4 ± 3.2 µM | MIC [11]: 0.1 µg/mL (≈ 0.249 µM)

CO[C@H]1/C=C/O[C@@]2(C)Oc3c(C)c(O)c4c(O)c(c(/C=N/N5CCN(C)CC5)c(O)c4c3C2=O)NC(=O)/C(C)=C\C=C\[C@H](C)[C@H](O)[C@@H](C)[C@@H](O)[C@@H](C)[C@H](OC(C)=O)[C@@H]1C [Rifampicin (RMP), Rifampicin, reference compound]
MIC (M. tuberculosis H37Rv; 2 weeks of treatment): 1 µg/mL (≈ 1.22 µM) | MIC ([7]; 2 weeks of treatment): 1 µg/mL (≈ 1.22 µM)

[H]/N=C(/N)N[C@H]1[C@H](O)[C@@H](O)[C@H](O[C@@H]2O[C@@H](C)[C@](O)(C=O)[C@H]2O[C@@H]2O[C@@H](CO)[C@H](O)[C@@H](O)[C@@H]2NC)[C@@H](N/C(N)=N\[H])[C@@H]1O [Streptomycin (SM), Streptomycin, reference compound]
MIC (M. tuberculosis H37Rv; 2 weeks of treatment): 1 µg/mL (≈ 1.72 µM) | MIC ([7]; 2 weeks of treatment): 1 µg/mL (≈ 1.72 µM)
